Results published in the NIST ThermoML archive (doi:10.1021/je700140j).

Assay: xn = mol fraction of the nth substance listed
Conditions: for surface tension liquid-gas: Ring tensiometer; for mass density / viscosity: 100.8 kPa, Liquid

OCCc1ccccc1 [2-phenylethanol] + CC(C)O
Conditions | mass density, 298.15 K [kg/m3] | mass density, 308.15 K [kg/m3] | surface tension liquid-gas, 298.15 K [mN/m] | surface tension liquid-gas, 308.15 K [mN/m] | viscosity, 298.15 K [mPa·s] | viscosity, 308.15 K [mPa·s]
x2 = 0 | 1016.2 | 1008.63 | 39.43 | 38.93 | 11.4 | 7.518
x2 = 0.05 | 1009.41 | 1002.31 | 38.1 | 37.7 | 10.66 | 7.05
x2 = 0.1 | 1002.07 | 994.92 | 36.9 | 36.58 | 9.933 | 6.594
x2 = 0.15 | 994.41 | 986.76 | 35.8 | 35.47 | 9.256 | 6.148
x2 = 0.2 | 986.36 | 978.65 | 34.7 | 34.38 | 8.618 | 5.726
x2 = 0.25 | 977.95 | – | 33.63 | 33.28 | 8 | –
x2 = 0.3 | 969.14 | – | 32.61 | 32.23 | 7.407 | –
x2 = 0.35 | 959.91 | – | 31.6 | 31.19 | 6.858 | –
x2 = 0.4 | 950.21 | – | 30.6 | 30.17 | 6.35 | –
x2 = 0.45 | 940.02 | – | 29.6 | 29.16 | 5.862 | –
x2 = 0.5 | 929.31 | – | 28.62 | 28.16 | 5.412 | –
x2 = 0.55 | 918.04 | – | 27.65 | 27.17 | 4.978 | –
x2 = 0.6 | 906.21 | – | 26.7 | 26.2 | 4.571 | –
x2 = 0.65 | 893.62 | – | 25.8 | 25.3 | 4.173 | –
x2 = 0.7 | 880.35 | – | 24.98 | 24.48 | 3.793 | –
x2 = 0.75 | 866.25 | – | 24.2 | 23.68 | 3.438 | –
x2 = 0.8 | 851.34 | – | 23.45 | 22.9 | 3.101 | –
x2 = 0.85 | 835.47 | – | 22.75 | 22.2 | 2.808 | –
x2 = 0.9 | 818.57 | – | 22.1 | 21.5 | 2.541 | –
x2 = 0.95 | 800.54 | – | 21.5 | 20.8 | 2.281 | –
